The structures appear in SMILES notation.

For the first assay, the target named is recombinant human CYP17 enzyme (Homo sapiens (Human), UniProt P05093). The experiment in a line: Cytochrome P450, 17-20 lyase (CYP17-lyase) assay, tritiated acetic acid release from 17-α-hydroxy pregnenolone [21-3H]. The format is biochemical. The settings on record: human CYP17, substrate 0.25 μM; read-out: Lyase IC 50 nM Human/Rat (Human). From the text: Assay method was adopted from a published protocol with some modifications to suit our requirements (Dmitry N Grigoryev et al, Analytical Biochemistry, (1999) 267, 319-330). […] Chloroform extraction removes the radioactive steroids and acetic acid is taken into aqueous layer. The tritiated acetic acid released in the assay thus extracted is quantified to determine the enzyme activity. […] The purified cell membrane preparations were used as the source for Human CYP17 enzyme. […] O, Nijar, et al., J Med Chem, (1998) 41, 902-912). […] Km for this substrate was determined by monitoring the tritiated acetic acid release as a function of substrate concentration. […] For the Km determination, the data was fit to a hyperbolic equation (Graphpad Prism® software IV). […] (Dmitry N. Grigoryev et al, Analytical Biochemistry (1999) 267, 319-330) […] NADPH is used at a final concentration of 4.2 mM. Total reaction volume was made up to 50 μL with 50 mM Phosphate buffer pH 7.5. The reaction mixture was incubated at room temperature for 90 minutes with gentle shaking. The reaction was stopped by the addition of 100 μL of buffer. 500 μL of 5% freshly prepared activated charcoal was added to the solution and mixed well by vortexing. The samples were centrifuged at 17568×g for 5 minutes. (14000 rpm). The supernatant was carefully transferred to fresh tube and 1.3 mL of scintillation fluid was added, mixed by vortexing. The radioactivity was measured in a 1450 MicroBeta TriLux™ scintillation counter from Wallac-Perkin Elmer®, USA. The measurements were carried out in 2.0 mL Eppendorforf™ tubes. […] The amount of tritiated acetic acid released is proportional to the lyase activity. Percent lyase activity in presence of inhibitor was calculated using the formula given below. […] Enzyme reaction in presence of inhibitor. • Positive control: […] For IC50 determination, the % inhibition was plotted as a function of inhibitor concentration. The data was fitted to sigmoidal equation using Graphpad Prism® software IV to generate IC50 values.
Chain of recombinant human CYP17 enzyme (P05093 whole entry): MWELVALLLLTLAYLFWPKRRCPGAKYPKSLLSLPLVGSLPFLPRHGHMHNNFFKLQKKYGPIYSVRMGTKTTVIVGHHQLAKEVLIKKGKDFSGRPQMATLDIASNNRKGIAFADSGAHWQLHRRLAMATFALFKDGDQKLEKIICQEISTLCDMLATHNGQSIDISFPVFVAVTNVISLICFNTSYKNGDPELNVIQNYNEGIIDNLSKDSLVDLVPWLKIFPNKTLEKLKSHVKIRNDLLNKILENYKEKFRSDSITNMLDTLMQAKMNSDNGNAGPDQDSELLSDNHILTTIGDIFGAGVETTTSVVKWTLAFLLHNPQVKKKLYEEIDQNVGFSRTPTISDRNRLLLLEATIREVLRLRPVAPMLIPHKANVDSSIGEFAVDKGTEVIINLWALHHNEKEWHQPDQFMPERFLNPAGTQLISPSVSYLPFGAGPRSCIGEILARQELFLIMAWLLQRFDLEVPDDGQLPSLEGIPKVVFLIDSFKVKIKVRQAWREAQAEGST
In the case of `CN1CCC[C@H]1COc1ccncc1N1CCN(c2ccc3ncsc3c2)C1=O` (stereo in doubt) [Example 181A, 1-Benzothiazol-6-yl-3-[4-(1-methyl-pyrrolidin-2-ylmethoxy)-pyridin-3-yf]-imidazolidin-2-one], the IC50 was found to be 3060 nM.
For the compound `Cc1ccc(N2CCN(c3cnccc3C)C2=O)s1` [Example 15A, 1-(4-Methyl-pyridin-3-yl)-3-(5-methyl-thiophen-2-yl)-imidazolidin-2-one], the IC50 came out at 10 nM.
Consider `Cc1ccncc1N1CCN(c2ccc(Cl)cc2)C1=O` [Example 38A, 1-(4-Chloro-phenyl)-3-(4-methyl-pyridin-3-yl)-imidazolidin-2-one], for which the IC50 is 70 nM.
Regarding `Cc1ccncc1N1CCN(c2ccc(F)c(F)c2)C1=O` [Example 45A, 1-(3,4-Difluoro-phenyl)-3-(4-methyl-pyridin-3-yl)-imidazolidin-2-one], the IC50 was 27 nM.
Still for that read-out and setting: with `Cc1ccncc1N1CCN(c2ccc(F)c(Cl)c2)C1=O` [Example 46A, 1-(3-Chloro-4-fluoro-phenyl)-3-(4-methyl-pyridin-3-yl)-imidazolidin-2-one] the figure was 10 nM; with `Cc1ccncc1N1CCN(c2ccc3c(c2)OCCO3)C1=O` [Example 49A, 1-(2,3-Dihydro-benzo[1,4]dioxin-6-yl)-3-(4-methyl-pyridin-3-yl)-imidazolidin-2-one], 30 nM; with `Cc1ccncc1N1CCN(c2ccc(C(F)(F)F)cc2)C1=O` [Example 50A], 51 nM.
The same measure, in the same setting: with `Cc1ccncc1N1CCN(c2ccc3c(c2)CCO3)C1=O` [Example 51A, 1-(2,3-Dihydro-benzofuran-5-yl)-3-(4-methyl-pyridin-3-yl)-imidazolidin-2-one] the figure was 14 nM.
Still for that read-out and setting: with `COc1ccc(N2CCN(c3cnccc3C)C2=O)cc1F` [Example 53A, 1-(3-Fluoro-4-methoxy-phenyl)-3-(4-methyl-pyridin-3-yl)-imidazolidin-2-one] the figure was 136 nM.
For the compound `Cc1ccncc1N1CCN(c2ccc(Cl)c(F)c2)C1=O` [Example 54A, 1-(4-Chloro-3-fluoro-phenyl)-3-(4-methyl-pyridin-3-yl)-imidazolidin-2-one], the IC50 worked out at 15 nM.
Turning to `COc1cccc(N2CCN(c3cnccc3C)C2=O)c1` [Example 56A, 1-(3-Methoxy-phenyl)-3-(4-methyl-pyridin-3-yl)-imidazolidin-2-one], the IC50 amounted to 25 nM.
In the case of `Cc1ccncc1N1CCN(c2ccnc(Cl)c2)C1=O` [Example 58A, 1-(2-Chloro-pyridin-4-yl)-3-(4-methyl-pyridin-3-yl)-imidazolidin-2-one], the IC50 worked out at 27 nM.
The same measure, in the same setting: with `Cc1cc(N2CCN(c3cnccc3C)C2=O)ccc1F` [Example 59A, 1-(4-Fluoro-3-methyl-phenyl)-3-(4-methyl-pyridin-3-yl)-imidazolidin-2-one] the figure was 17 nM; with `Cc1ccncc1N1CCN(c2ccc3scnc3c2)C1=O` [Example 62A, 1-Benzothiazol-5-yl-3-(4-methyl-pyridin-3-yl)-imidazolidin-2-one], 426 nM; with `Cc1ccncc1N1CCN(c2ccc3c(c2)OC(F)(F)O3)C1=O` [Example 64A, 1-(2,2-Difluoro-benzo[1,3]dioxol-5-yl)-3-(4-methyl-pyridin-3-yl)-imidazolidin-2-one], 35 nM.
On the same count and under the same terms, with `Cc1ccncc1N1CCN(c2ccccc2)C1=O` [Example 69A, 1-(4-Methyl-pyridin-3-yl)-3-phenyl-imidazolidin-2-one] the figure was 34 nM; with `Cc1ccncc1N1CCN(c2ccn3ccnc3c2)C1=O` [Example 73A, 1-imidazolidin-2-one], 109 nM.
The same measure, in the same setting: the result for `COc1cc(N2CCN(c3cnccc3C)C2=O)ccc1F` [Example 74A, 1-(4-Fluoro-3-methoxy-phenyl)-3-(4-methyl-pyridin-3-yl)-imidazolidin-2-one] reads 76 nM; that for `Cc1ccncc1N1CCN(c2ccnc(N)c2)C1=O` [Example 76A], 192 nM.
For `Cc1ccncc1N1CCN(c2ccc3nccnc3c2)C1=O` [Example 77A, 1-(4-Methyl-pyridin-3-yl)-3-quinoxalin-6-yl-imidazolidin-2-one], the IC50 amounted to 195 nM.
Consider `Cc1ccncc1N1CCN(c2csc(C(F)F)c2)C1=O` [Example 78A, 1-(5-Difluoromethyl-thiophen-3-yl)-3-(4-methyl-pyridin-3-yl)-imidazolidin-2-one], for which the IC50 worked out at 9.3 nM.
As for `O=C1N(c2ccc3ncsc3c2)CCN1c1cnccc1Cl` [Example 84A, 1-Benzothiazol-6-yl-3-(4-chloro-pyridin-3-yl)-imidazolidin-2-one], the IC50 is 85 nM.
The same measure, in the same setting: the result for `Cc1ccncc1N1CCN(c2ccnc(N3CCCC3)c2)C1=O` [Example 85A, 1-(4-Methyl-pyridin-3-yl)-3-(2-pyrrolidin-1-yl-pyridin-4-yl)-imidazolidin-2-one] reads 1260 nM; that for `Cc1ccncc1N1CCN(c2cccc(Cl)c2F)C1=O` [Example 86A, 1-(3-Chloro-2-fluoro-phenyl)-3-(4-methyl-pyridin-3-yl)-imidazolidin-2-one], 1200 nM; that for `Cc1ccncc1N1CCN(c2ccc(-c3ccc(F)cc3)cc2)C1=O` [Example 87A, 1-(4′-Fluoro-biphenyl-4-yl)-3-(4-methyl-pyridin-3-yl)-imidazolidin-2-one], 255 nM.
On the same count and under the same terms, the result for `Cc1ccncc1N1CCN(c2cccc(Cl)c2)C1=O` [Example 88A, 1-(3-Chloro-phenyl)-3-(4-methyl-pyridin-3-yl)-imidazolidin-2-one] reads 12 nM.
Same read-out and setting: with `Cc1cc(Cl)ccc1N1CCN(c2cnccc2C)C1=O` [Example 89A, 1-(4-Chloro-2-methyl-phenyl)-3-(4-methyl-pyridin-3-yl)-imidazolidin-2-one] the figure was 326 nM.
For `Cc1ccncc1N1CCN(c2ccc(F)c(C(F)(F)F)c2)C1=O` [Example 90A, 1-(4-Fluoro-3-trifluoromethyl-phenyl)-3-(4-methyl-pyridin-3-yl)-imidazolidin-2-one], the IC50 was found to be 5 nM.
Same read-out and setting: with `Cc1ccncc1N1CCN(c2ccc(F)c(C(F)F)c2)C1=O` [Example 91A, 1-(3-Difluoromethyl-4-fluoro-phenyl)-3-(4-methyl-pyridin-3-yl)-imidazolidin-2-one] the figure was 4.3 nM; with `Cc1ccncc1-n1ccn(-c2ccc(F)c(C(F)F)c2)c1=O` [Example 91B, 1-(3-Difluoromethyl-4-fluoro-phenyl)-3-(4-methyl-pyridin-3-yl)-1,3-dihydro-imidazol-2-one], 22 nM.
In the case of `Cc1cc(-n2ccn(-c3cnccc3C)c2=O)cs1` [Example 92A, 1-(4-Methylpyridin-3-yl)-3-(5-methylthiophen-3-yl)-1H-imidazol-2(3H)-one], the IC50 turned out to be 21 nM.
On to `Cc1cc(N2CCN(c3cnccc3C)C2=O)cs1` [Example 92B, 1-(4-Methyl-pyridin-3-yl)-3-(5-methyl-thiophen-3-yl)-imidazolidin-2-one], for which the IC50 was found to be 12 nM.

Still in this assay, the particulars now being: human CYP17, substrate 0.25 μM; read-out: Lyase IC 50 Human/Rat (Human).
`CC(=O)Nc1ccc(N2CCN(c3cnccc3C)C2=O)cn1` [Example 75A, N-{5-[3-(4-Methyl-pyridin-3-yl)-2-oxo-imidazolidin-1-yl]-pyridin-2-yl}-acetamide]: the IC50 was more than 10000 nM.

Staying with this assay, now noted: substrate varied from 0.03125 μM to 1 μM, hyperbolic fit; read-out: Km (Michaelis Menton constant) of the substrate.
In the case of `CC(=O)C1(O)CCC2C3CC=C4CC(O)CCC4(C)C3CCC21C` (stereo not drawn) [17-α-hydroxy pregnenolone [21-3H], reference compound], the Km was found to be 250 nM.

A word on the Km: it is the substrate concentration at which the rate is half of its maximum.

Source of the values: patent publication USRE45173E1, “Inhibitors of CYP 17” (Novartis AG, priority 2009, dated 2014).
